In patent US20230227484A1, “PYRIMIDINE COMPOUND AS AXL INHIBITOR” (NANJING CHIA TAI TIANQING PHARMACEUTICAL CO., LTD., priority 2020, published 2023):

What was measured:
[1] = Pharmacokinetic study of compounds on ICR mice; format: in vivo; details: mouse, po, male ICR mice, plasma
Protocol: Each compound is prepared with DMSO into a 10 mg/mL stock solution.
Preparation of mixed solvent: Tween 80: PEG400: Water=1:9:90 (v/v/v)
450 μl of the compound DMSO stock solution with a concentration of 10 mg/nmL is accurately sucked into a glass bottle, and added with an appropriate volume of DMSO and mixed solvent, wherein a ratio of the solvent in the final formulation is DMSO: mixed solvent (v/v)=10:90. The mixed solution is vortexed (or ultrasonically treated), and dispersed uniformly to obtain 4.5 mL. administration test solutions with a concentration of 1 mg/nL, respectively.
Male 6-10 week old ICR mice (sourced from: Beijing Vital River Laboratory Animal Technology Co., Ltd.) are taken, 6 mice in each group. The mice are fasted overnight and fed 4 h after the administration. On the day of the experiment, the mice are administrated with 10 mg-kg^1 of compound test solution by gavage. After administration, about 100 μL of blood is harvested from the orbits of the mice at 0 min, 5 mmn, 15 mmn, 30 min, 14 h 2 h, 4 h, 8 h, and 24 h, and placed in EDTA-K2 anticoagulant tubes. The whole blood sample is centrifuged at 1500 to 1600 g for 10 mm, and the plasma obtained by separation is stored in a refrigerator at −40 to −20° C. for biological sample analysis. The blood drug concentration is determined by an LC-MS/MS method.
A non-compartmental model in Pharsight Phoenix 7.0 is used to calculate pharmacokinetic parameters. The specific results are shown in 5 the table below.

[2] = test system: MV-4-11 (human myeloid monocytic leukemia cell line); assay: Proliferation inhibition activity of compounds to MV-4-11 cells (CellTiter-Glo); format: cell-based; details: MV4-11 cells, 72 h dosing
How it was run: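 MV-4-11 cells, plated 24 h earlier, were exposed 72 h to compounds in 10-point 3-fold dilutions (0.5% DMSO final). Viability read by CellTiter-Glo luminescence; inhibition normalized to blank and untreated controls, IC50 from variable-slope log(inhibitor)-response fit.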

[3] = test system: human acute monocytic leukemia cell MV-4-11 xenograft tumor; assay: In-vivo efficacy of compound for MV4-11 xenograft tumor model of nude mouse; details: MV4-11, po, intragastric 5 mg/kg/d, once a day, end of experiment, MV-4-11 xenograft nude mice
Protocol: Inhibitory effects of a compound and a positive drug on the in-vivo tumor growth of a xenograft tumor model of a nude mouse on human acute monocytic leukemia cell MV-4-11 are tested.
MV-4-11 cells in a logarithmic growth phase are harvested, resuspended after cell counting, and adjusted in cell concentration to 7.0×10^7 cells/mL. The resuspended solution is injected into the right armpit of the nude mice subcutaneously. Each animal is inoculated with 200 μL (14×10^6 cells) of the suspended solution to establish a MV-4-11 xenograft tumor model. Afer the tumor volume reaches 100-300 mm^3, tumor-bearing mice in good health and similar tumor volume are selected.
The compound and the positive drug are vortexed with a suitable solvent and then ultrasonicated to completely dissolve the compound. Then, an appropriate volume of citric acid buffer is slowly added, and the mixed solution is vortexed to make the solution mixed uniformly to obtain administrative formulations having concentrations of 0.1, 0.5, and 1 mg-mL^−1.
Solvent control group: PEG400 & citric acid buffer (20:80, v:v).
The modeled mice are randomly divided into groups (n=6), and administrated with the relevant compounds and positive drugs on the day of grouping. After 21 days or after the tumor volume of the solvent control group reaches 2000 mm^3, the experiment is terminated (whichever reaches the index first), and the administration volume is 10 mL-kg^−1. Both the compound and the positive drug are administered by gavage, once a day. After the experiment starts, the tumor diameter and animal body weight are measured twice a week, and the tumor volume is calculated.
The tumor volume(TV) calculation formula is: tumor volume(mm^3)=l×w^2/2,
The calculation formula of relative tumor volume(RTV) is: RTV=TVt/TVinitial
The calculation formula of relative tumor proliferation rate (% T/C) is: % T/C=100%×(RTVT/RTVC)

[4] = test system: human acute monocytic leukemia cell MV-4-11 xenograft tumor; assay: as above; details: MV4-11, po
[5] = read-out: Relative tumor proliferation rate (% T/C)

Row | SMILES | Cmax ([1]; 10 mg-kg^1 by gavage) | Tmax ([1]; 10 mg-kg^1 by gavage) | AUC(0-t) ([1]; 10 mg/kg-kg^1 by gavage, read-out: AUC0-24) | IC50 [2] | response vs control in vivo at 5 mg/kg/day [3, 5] | inhibition in vivo at 5 mg/kg/day ([3]; read-out: Tumor growth inhibition rate (TGI %)) | inhibition in vivo at 20 mg/kg/day ([4]; intragastric 20 mg/kg/d, once a day, end of experiment, MV-4-11 xenograft nude mice, read-out: Tumor growth inhibition rate (TGI %)) | response vs control in vivo at 20 mg/kg/day [4, 5]
1 | CN1CCN(Cc2ccc(Nc3ncc(Cl)c(Nc4ccccc4S(=O)(=O)N(C)C)n3)cc2)CC1 [Positive drug 2 (TP0903), TP0903, reference compound] | 26.8 ng/mL | 15 min | 52.2 ng·h/mL | 12 nM | 42% | 62% | – | –
2 | Nc1nc(Nc2ccc3c(c2)CC[C@@H](N2CCCC2)CC3)nn1-c1cc2c(nn1)-c1ccccc1CCC2 [Positive drug 1 (BGB324), BGB324] | – | – | – | 208 nM | – | – | 32% | 71%
